From article PMC2909000 (Current topics in medicinal chemistry, 2009)
Read-outs that look alike come from different tables or passages of the source.

Assays:
[1] = test system: two component NS2B-NS3 Proteinase of West Nile Virus; conditions: another MLSCN Center; ref xxix, xxx; cited from earlier work
SARS-CoV = conditions: cited from earlier work
human liver cathepsin L = conditions: cited from earlier work
Ebola virus = conditions: cited from earlier work
cathepsin B = conditions: relative to cathepsin L
zebrafish = conditions: cited from earlier work
[2] = test system: bovine aortic endothelial cells; conditions: ref xl; cited from earlier work
cathepsin L = cathepsin L (Homo sapiens, UniProt P07711); type: biochemical; conditions: stoichiometric amounts of enzyme
Sequence of cathepsin L (P07711 114-333): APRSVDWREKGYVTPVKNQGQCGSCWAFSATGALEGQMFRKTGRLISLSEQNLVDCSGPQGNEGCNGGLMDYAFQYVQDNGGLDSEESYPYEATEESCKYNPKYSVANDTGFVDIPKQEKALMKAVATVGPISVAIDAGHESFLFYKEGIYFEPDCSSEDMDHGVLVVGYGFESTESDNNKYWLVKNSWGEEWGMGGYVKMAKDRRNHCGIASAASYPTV

Plasmodium falciparum = conditions: read-out: IC50, Plasmodium falciparum; cellular model of infection; ref xl; cited from earlier work
Leishmania major = conditions: read-out: IC50, Leishmania major; cellular model of infection; ref xl; cited from earlier work
[3] = reaction of 15a in the presence of cysteine, LC/MS monitoring for products; type: physicochemical

COc1ccc(S(=O)(=O)n2nc(OC(=O)c3ccccc3)cc2N)cc1 [CID 655490]
mode of inhibition of NS2B-NS3 Proteinase [1]: slow-binding, reversible, non-competitive inhibitor

CC(C)(C)OC(=O)N[C@@H](Cc1c[nH]c2ccccc12)C(=O)NNC(=O)OCC(=O)N1CCCc2ccccc21 [Compound 19]
concentration preventing entry of SARS-CoV into cells (SARS-CoV): sub-micromolar
IC50 (human liver cathepsin L; read-out: IC50 against cathepsin L with a 4 hour pre-incubation, 4 hour pre-incubation, ref xxx): 0.4 nM
IC50 (human liver cathepsin L; read-out: IC50 against cathepsin L, no pre-incubation, ref xxx): 7 nM
cathepsin L activity of analogs with modified C2 carbonyl reactivity (human liver cathepsin L; ref xxxviii): as potent as the thiocarbazate
concentration preventing entry of Ebola virus into cells (Ebola virus): sub-micromolar
selectivity compared to cathepsin B (cathepsin B; ref xxx): > 700 fold
toxicity in zebrafish whole organism assay (zebrafish; no toxicity detected up to this concentration, ref xxx): > 100 µM

CCc1ccccc1NC(=O)CSC(=O)NNC(=O)[C@H](Cc1c[nH]c2ccccc12)NC(=O)OC(C)(C)C [Compound 15a]
Toxicity (bovine aortic endothelial cells) [2]: 16 µM
IC50 (human liver cathepsin L; cathepsin L, no preincubation stated, ref xl): 56 nM
Ki (human liver cathepsin L; cathepsin L, ref xl): 0.89 nM
koff (human liver cathepsin L; cathepsin L, ref xl): 2.2e-05 s⁻¹
IC50 (human liver cathepsin L; read-out: Cathepsin L inhibition IC50, analogs of 15a, ref xlii): 56 nM
IC50 (human liver cathepsin L; read-out: IC50(4h preincubation), cathepsin L, 4h preincubation, ref xl): 1 nM
kinetic characterization of inhibition (human liver cathepsin L; ref xl): slowly reversible inhibition
products of hydrolysis (20 and 21) detected by LC/MS (cathepsin L): No products were detected
Selectivity vs cathepsin B (cathepsin B; ref xl): 45-fold
IC50 (Plasmodium falciparum): 15400 nM
Toxicity (zebrafish) (zebrafish; ref xl): >100 µM
IC50 (Leishmania major): 12500 nM
products detected in the presence of cysteine [3]: no detectable products
